The test system of one assay is human neutrophils. The conditions noted are these: concentration-dependent 1˜25 mM; induced by fMLP and TPA in human neutrophils; cited from earlier work.
Assay [1] has as its system human liver cancer Hep3B cells. The conditions noted are these: cited from earlier work.
Another assay concerns membrane GLUT4. The experiment in a line: Membrane GLUT4 expression in C2C12 cells (Western blotting). The format is cell-based. The conditions noted are these: AnK 1, 5, 10 and 25 μg/mL 30 min, insulin 100 nM 25 min, vs CON group. The protocol:
(§1) For the in vitro assay, C2C12 skeletal myoblasts (ATCC CRL-1772) were cultured at 37° C. in Dulbecco's modified Eagle's medium (DMEM; Gibco BRL) supplemented with 10% fetal bovine serum (FBS; Hyclone) and 100 U/ml penicillin and 100 μg/ml streptomycin (Gibco BRL), and split 1:4 using 0.05% trypsin at 80% confluency. Myoblasts were diluted and placed in a 9 cm dish. Cells were cultured to achieve 80-90% confluency and refreshed with […] (2% FBS/DMEM) every 24 hours for 5-7 days. The term “confluency” refers to the proportion of the surface of a culture dish that is covered by adherent cells growing in the dish. 100% confluency refers to complete coverage of the surface by the cells.
(§2) Differentiated C2C12 cells were serum-starved in DMEM/BSA at 37° C. for 2 hours prior to incubation with AnK (at 1, 5, 10, and 25 μg/mL) or vehicle (0.2% dimethyl sulfoxide (DMSO) in saline) for 30 min or with 100 nM insulin for 25 min.
The C2C12 cells of the other group were homogenized in a homogenization buffer having a pH value of about 7.4 and containing 250 mM sucrose, 50 mM Tris, and 0.2 mM edetic acid (EDTA). […]
(§3) Protein concentrations were determined via BCA assay (Pierce). […]
(§4) SDS polyacrylamide gel electrophoresis (SDS-PAGE) and Western blotting. Proteins were detected with antibodies specific for GLUT4, Akt, phospho-Akt (Ser^473), AMPK, and phospho-AMPK (Thr^172).
Background: In western blotting, separated proteins are transferred to a membrane and probed.

The test system of assay [2] is phospho-Akt (Ser^473)/total-Akt. The experiment in a line: Akt phosphorylation in C2C12 cells (Western blotting). The format is cell-based. The note with it: AnK 1, 5, 10 and 25 μg/mL 30 min, insulin 100 nM 25 min, vs CON group. The protocol:
as §1, §2
(§5) The abovementioned C2C12 cells were then washed three times with phosphate buffered saline (PBS) and divided into two groups. […]
as §3, §4

Another assay deals with PPARγ. The experiment in a line: Western blotting of PPARγ in adipose tissue. The note with it: HFD-fed mice, AnK 10, 20, 40, Feno 250, Metf 300 mg/kg/day, vs HF group. It counts as in vivo, C57BL/6J mice. The text has this:
The 4-week old male C57BL/6J mice (total amount n=63) were obtained from the National Laboratory Animal Center (Taipei, Taiwan). After acclimatization for one week, all of the mice were randomly assigned into a control (CON) group and a high-fat diet (HFD) group. […] After HFD feeding for 8 weeks, the HFD group was randomly subdivided into six groups (n=9 per group) receiving different treatments and fed on HFD. […] The HF+AnK1, HF+AnK2, and HF+AnK3 groups are collectively termed AnK-treated HFD groups in the following examples. The CON mice were administered vehicle. All treatments were administered via oral gavage once daily. After administration for 4 weeks, all mice were fasted 12 hours, and blood was collected from the retro-orbital sinus under ether anesthesia. At the end of the experiment, the mice were sacrificed via carbon dioxide inhalation. […]
About 0.1 g of liver tissue, skeletal muscle, or adipose tissue was used for the homogenate samples. […] The protein concentration in supernatant was determined with a BCA protein assay kit (Thermo Scientific, Rockford, Ill., USA). […] Immunoreactive bands were detected with ECL reagent kit (GE Healthcare BioSciences, Buckinghamshire, UK). The intensity of Western blot signals was analyzed using AlphaEase FC software (Alpha Innotech Corporation, Randburg, South Africa). […]

In assay [3] the test system is phospho-AMPK (Thr^172)/total-AMPK. Nature of the assay: AMPK phosphorylation in C2C12 cells (Western blotting). It counts as cell-based. The conditions noted are these: AnK 1, 5, 10 and 25 μg/mL 30 min, insulin 100 nM 25 min, vs CON group. How it is done: as §1, §2, §5, §3, §4

Regarding `C=C(CC[C@@H](C)[C@H]1CC[C@H]2C3=C(C(=O)C[C@]12C)[C@@]1(C)CC[C@@H](O)[C@](C)(O)[C@@H]1C[C@@H]3O)C(C)C(=O)O` (stereo partly drawn) [AnK, 3α,4β,7β-trihydroxy-4α-methylergosta-8,24(28)-dien-11-on-25S-26-oic acid], in the assay on human neutrophils, the “anti-inflammatory effects (modulation of leukocyte activity, inhibition of reactive oxygen species production)” value is given as “anti-inflammatory effects”. The apoptotic cell death entry in assay [1] is on record as “inducing apoptotic cell death”. In addition, in the assay with membrane GLUT4, the “protein expression of membrane GLUT4” value is “enhanced”. Moreover, the “expression ratio of phospho-Akt (p-Akt) to total-Akt (t-Akt)” value in assay [2] is “higher”. In the assay with PPARγ, the “expression levels of PPARγ (protein)” value is “significantly reduced”. Besides, the “expression ratio of phospho-AMPK (p-AMPK) to total-AMPK (t-AMPK)” value in assay [3] is reported as “higher”.

The record behind these values is US10124012B2, “Method for treatment of hyperglycemia and hyperlipidemia” (priority 2016, dated 2018).
